Our source for the IC50 values is patent US11820756B2, “Bradykinin B2 receptor antagonists” (Pharvaris Netherlands B.V., priority 2017, dated 2023).

This assay has as its target T1, human bradykinin B2 receptor (hB2R) (Homo sapiens, UniProt P30411).
T1 sequence (P30411 1-391): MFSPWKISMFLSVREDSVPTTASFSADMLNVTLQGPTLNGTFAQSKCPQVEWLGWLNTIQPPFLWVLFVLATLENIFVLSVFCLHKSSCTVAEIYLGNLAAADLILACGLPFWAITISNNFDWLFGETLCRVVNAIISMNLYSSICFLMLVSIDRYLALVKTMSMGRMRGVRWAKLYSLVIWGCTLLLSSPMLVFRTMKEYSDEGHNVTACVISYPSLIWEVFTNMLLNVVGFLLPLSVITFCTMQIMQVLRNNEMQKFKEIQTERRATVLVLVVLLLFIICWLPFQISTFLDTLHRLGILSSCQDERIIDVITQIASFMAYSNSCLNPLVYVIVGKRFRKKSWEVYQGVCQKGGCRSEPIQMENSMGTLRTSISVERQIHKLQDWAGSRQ
Briefly: cell-based human bradykinin B2 receptor calcium mobilization (hB2R-CaM) assay. The conditions noted are these: HTS041C cells, bradykinin at EC80, calcium mobilization; read-out: IC50-value towards human bradykinin B2 receptor (hB2R). The source says:
The following cell-based human bradykinin B2 receptor calcium mobilization (hB2R-CaM) assay was used to determine the antagonistic activity of compounds selected from the example compounds Nos. 1 to 168 towards human bradykinin B2 receptor (hB2R). The assay is defined herein as a standard in vitro B2 receptor activity assay, which can be used to determine IC50 values of the compounds according to the present invention, e. g. the compounds shown in Examples 1-11.
The antagonistic activity of compounds according to the present invention was investigated with the hB2R-CaM assay using the B2 Bradykinin Receptor Stable Cell Line HTS041C (Eurofins, St. Charles MO) and the FLIPR Calcium 6 Assay Kit (Molecular Devices, Wokingham, UK) according to the instructions of the providers. CaM assay measurements were performed with a Flexstation 3 System (Molecular Devices) which allows the precise addition of compounds (B2R antagonists) and bradykinin (B2R agonist) to the cells and adjacent continuous recording of the time-dependent CaM assay signals.
HTS041C cells were cultured in high glucose DMEM cell culture medium (Lonza) supplemented with 10% heat-inactivated FBS (PAN Biotech), 10 mM HEPES, Penicillin/Streptomycin (200 U/mL, 200 μg/mL), 1× non-essential amino acids (Lonza), and 250 μg/mL G418 (Invivogen) in cell incubator at 37° C. in a 5% CO2 atmosphere.
One day before the CaM assay experiments cells were seeded in 200 μL DMEM cell culture medium with reduced FBS (5%) and without G418 on clear bottom black 96 well plates (ThermoFisher #165305). Cell starvation was carried out by incubation (37° C., 5% CO2) of 70.000 cells/well for 24 h to 28 h. Immediately prior calcium dye-loading the medium was carefully aspirated and cells were washed with Hank's balanced salt solution (HBSS, Gibco) containing Ca^2+, Mg^2+ and 20 mM HEPES, adjusted to pH 7.4 (HBSS+). Calcium Dye Loading of the Cells:
For calcium dye-loading one FLIPR 6 assay aliquot was dissolved in 20 mL HBSS+. 150 μL of the dye loading solution was added to cell plate and incubated for 120 min at 37° C. and 5% CO2. After dye loading the cell plate was immediately transferred to the pre-warmed (37° C.) Flexstation 3 System for CaM assaying.
Freshly prepared compound (B2 receptor antagonists) dilution series (8 pt, n=2) and bradykinin (B2 receptor agonist) solution in non-binding plates (Costar) were transferred to the Flexstation System (source plate) shortly before starting the experiment. Bradykinin was added in EC80 concentration determined in n>3 preliminary experiments with 8 pt concentration response curves (n=8)). CaM assay was executed by Flexstation 3 System starting with recording of calcium-sensitive dye fluorescence in bottom-read Flex modus with ex/em=485 nm/525 nm, cut off(em)=[…]. After 20 s, 50 μL of 4-fold concentrated compound dilutions were added to the cells resulting in a final DMSO (Sigma) concentration of 0.1% in the cell plate. CaM signals were monitored for 80 s after additions for detection of potential agonistic activities. Prior to bradykinin stimulus compound- and vehicle-treated cells were incubated for 25 min at 37° C. within the Flexstation System. Then 50 μL of a 5-fold concentrated bradykinin solution (HBSS+, 0.1% DMSO) was added to trigger CaM signals (Read out: Max-Min values) which were measured for 80 s post bradykinin stimulus.
IC50 determinations were performed by 4 parameter logistic model curve fitting of the 8 pt (n=2) compound concentration response curves using XLFIT (IDBS) software.
Relative IC50 values of the test compounds were determined with the same hB2R-CaM assay as in Example 12.
On to `Cc1cc(-n2cc(F)cn2)c2cccc(OCc3c(Cl)cc(F)cc3[C@H](C)N(C)C(=O)[C@H](C)O)c2n1` [Compound 2, (S)—N—((S)-1-(3-chloro-5-fluoro-2-((4-(4-fluoro-1H-pyrazol-1-yl)-2-methylquinolin-8-yloxy)methyl)phenyl)ethyl)-2-hydroxy-N-methylpropanamide], for which the IC50 is no more than 50 nM.
The result for `Cc1cc(-n2cc(F)cn2)c2cccc(OCc3c(Cl)cc(F)cc3[C@H](C)NC(=O)[C@H](O)CN)c2n1` [Compound 3, (R)-3-amino-N—((S)-1-(3-chloro-5-fluoro-2-((4-(4-fluoro-1H-pyrazol-1-yl)-2-methylquinolin-8-yloxy)methyl)phenyl)ethyl)-2-hydroxypropanamide] reads 251 to 1000 nM; that for `Cc1cc(-n2ncc(F)c2C)c2cccc(OCc3c(Cl)cc(F)cc3[C@H](C)NC(=O)[C@@H](C)O)c2n1` [Compound 8, (R)—N—((S)-1-(3-chloro-5-fluoro-2-((4-(4-fluoro-5-methyl-1H-pyrazol-1-yl)-2-methylquinolin-8-yloxy)methyl)phenyl)ethyl)-2-hydroxypropanamide], 51 to 250 nM; that for `Cc1cc(-n2ncnc2C)c2cccc(OCc3c(Cl)cc(F)cc3[C@H](C)NC(=O)COC(F)F)c2n1` [Compound 9, (S)—N-(1-(3-chloro-5-fluoro-2-((2-methyl-4-(5-methyl-1H-1,2,4-triazol-1-yl)quinolin-8-yloxy)methyl)phenyl)ethyl)-2-(difluoromethoxy)acetamide], no more than 50 nM.
The result for `Cc1cc(-n2cnc(C)n2)c2cccc(OCc3c(Cl)cc(F)cc3[C@H](C)NC(=O)COC(F)F)c2n1` [Compound 10, (S)—N-(1-(3-chloro-5-fluoro-2-((2-methyl-4-(3-methyl-1H-1,2,4-triazol-1-yl)quinolin-8-yloxy)methyl)phenyl)ethyl)-2-(difluoromethoxy)acetamide] reads 51 to 250 nM.
As for `[2H]C([2H])([2H])[C@]([2H])(NC(=O)COC(F)F)c1cc(F)cc(Cl)c1COc1cccc2c(-c3ncnn3C)cc(C)nc12` [Compound 11A, N-[(1S)-1-[3-chloro-5-fluoro-2-({[2-methyl-4-(1-methyl-1H-1,2,4-triazol-5-yl)quinolin-8-yl]oxy}methyl)phenyl](1,2,2,2-^2H4)ethyl]-2-(difluoromethoxy)acetamide], the figure is no more than 50 nM.
On to `[2H][C@@](CO)(NC(=O)COC(F)F)c1cc(F)cc(Cl)c1COc1cccc2c(-c3ncnn3C)cc(C)nc12` [Compound 11B, (R)—N-(1-Deutero-1-(3-chloro-5-fluoro-2-((2-methyl-4-(1-methyl-1H-1,2,4-triazol-5-yl)quinolin-8-yloxy)methyl)phenyl)-2-hydroxyethyl)-2-(difluoromethoxy)acetamide], for which the IC50 was no more than 50 nM.
As for `[2H][C@@](C)(NC(=O)[C@@H](C)F)c1cc(F)cc(Cl)c1COc1cccc2c(-n3ncnc3C)cc(C)nc12` [Compound 11C, (R)—N—((S)-1-deutero-1-(3-chloro-5-fluoro-2-((2-methyl-4-(5-methyl-1H-1,2,4-triazol-1-yl)quinolin-8-yloxy)methyl)phenyl)ethyl)-2-fluoropropanamide], the figure is no more than 50 nM; as for `COCC(=O)N[C@@H](C)c1cc(F)cc(Cl)c1COc1cccc2c(-n3cc(F)cn3)cc(C)nc12` [Compound 12], no more than 50 nM.
As for `Cc1cc(-n2cc(F)cn2)c2cccc(OCc3c(Cl)cc(F)cc3[C@H](C)NC(=O)[C@@H]3CCCO3)c2n1` [Compound 14], the figure is no more than 50 nM; as for `Cc1cc(-n2cc(F)cn2)c2cccc(OCc3c(Cl)cc(F)cc3[C@H](C)NC(=O)[C@H]3CCOC3)c2n1` [Compound 15], no more than 50 nM.
The result for `CO[C@@H](C)C(=O)N[C@@H](C)c1cc(F)cc(Cl)c1COc1cccc2c(-n3cc(F)cn3)cc(C)nc12` [Compound 16] reads no more than 50 nM; that for `CO[C@H](C)C(=O)N[C@@H](C)c1cc(F)cc(Cl)c1COc1cccc2c(-n3cc(F)cn3)cc(C)nc12` [Compound 17], no more than 50 nM; that for `CCOCC(=O)N[C@@H](C)c1cc(F)cc(Cl)c1COc1cccc2c(-n3cc(F)cn3)cc(C)nc12` [Compound 18], no more than 50 nM.
As for `Cc1cc(-n2cc(F)cn2)c2cccc(OCc3c(Cl)cc(F)cc3[C@H](C)NC(=O)[C@@H]3CCOC3)c2n1` [Compound 19], the IC50 was no more than 50 nM.
For `Cc1cc(-n2cc(F)cn2)c2cccc(OCc3c(Cl)cc(F)cc3[C@H](C)NC(=O)[C@H]3CCCO3)c2n1` [Compound 20], the IC50 is no more than 50 nM.
As for `Cc1cc(-n2cc(F)cn2)c2cccc(OCc3c(Cl)cc(F)cc3[C@H](C)NC(=O)[C@@H](O)CN)c2n1` [Compound 21], the figure is 251 to 1000 nM.
For `Cc1cc(-n2cc(F)cn2)c2cccc(OCc3c(Cl)cc(F)cc3[C@H](C)NC(=O)[C@@H](O)C(C)C)c2n1` [Compound 22], the IC50 lay within 51 to 250 nM.
As for `Cc1cc(-n2cc(F)cn2)c2cccc(OCc3c(Cl)cc(F)cc3[C@H](C)NC(=O)C(C)(C)O)c2n1` [Compound 23], the figure is 51 to 250 nM; as for `CC[C@@H](O)C(=O)N[C@@H](C)c1cc(F)cc(Cl)c1COc1cccc2c(-n3cc(F)cn3)cc(C)nc12` [Compound 24], 51 to 250 nM; as for `CC[C@H](O)C(=O)N[C@@H](C)c1cc(F)cc(Cl)c1COc1cccc2c(-n3cc(F)cn3)cc(C)nc12` [Compound 25], 51 to 250 nM.
`Cc1cc(-n2cc(F)cn2)c2cccc(OCc3c(Cl)cc(F)cc3[C@H](C)NC(=O)C[C@@H](C)O)c2n1` [Compound 26]: the IC50 was no more than 50 nM.
Consider `Cc1cc(-n2cc(F)cn2)c2cccc(OCc3c(Cl)cc(F)cc3[C@H](C)NC(=O)C[C@H](C)O)c2n1` [Compound 27], for which the IC50 was no more than 50 nM.
Turning to `Cc1cc(-n2nccn2)c2cccc(OCc3c(Cl)cc(F)cc3[C@H](C)NC(=O)C(C)(C)O)c2n1` [Compound 28], the IC50 lay within 51 to 250 nM.
The result for `CO[C@@H](C)C(=O)N[C@@H](C)c1cc(F)cc(Cl)c1COc1cccc2c(-n3nccn3)cc(C)nc12` [Compound 29] reads no more than 50 nM.
The result for `Cc1cc(-n2nccn2)c2cccc(OCc3c(Cl)cc(F)cc3[C@H](C)NC(=O)[C@H]3CCOC3)c2n1` [Compound 30] reads no more than 50 nM; that for `Cc1cc(-n2nccn2)c2cccc(OCc3c(Cl)cc(F)cc3[C@H](C)NC(=O)[C@@H](C)O)c2n1` [Compound 31], 51 to 250 nM; that for `Cc1cc(-n2nccn2)c2cccc(OCc3c(Cl)cc(F)cc3[C@H](C)NC(=O)[C@H](C)O)c2n1` [Compound 32], 51 to 250 nM.
As for `CC[C@H](O)C(=O)N[C@@H](C)c1cc(F)cc(Cl)c1COc1cccc2c(-n3nccn3)cc(C)nc12` [Compound 33], the figure is 51 to 250 nM; as for `CC[C@@H](O)C(=O)N[C@@H](C)c1cc(F)cc(Cl)c1COc1cccc2c(-n3nccn3)cc(C)nc12` [Compound 34], 51 to 250 nM.
Consider `Cc1cc(-n2cc(F)cn2)c2cccc(OCc3c(Cl)cc(F)cc3[C@H](C)NC(=O)[C@@H](O)CC(C)C)c2n1` [Compound 46], for which the IC50 lay in the range of 51 to 250 nM.
Turning to `Cc1cc(-n2cc(F)cn2)c2cccc(OCc3c(Cl)cc(F)cc3[C@H](C)NC(=O)[C@H](O)CC(C)C)c2n1` [Compound 47], the IC50 was in the range of 251 to 1000 nM.
